Data: ChEMBL document CHEMBL4507274 (2021)

Legend:
[1] = tested on: Tyrosine-protein kinase ABL1 (Homo sapiens), P00519 [E255K]; conditions: Compound concentration 100.0 nM
[2] = biological target: Ephrin type-A receptor 4 (Homo sapiens) (UniProt P54764); conditions: Compound concentration 100.0 nM
[3] = biological target: Protein kinase C theta type (Homo sapiens) (UniProt Q04759); conditions: Compound concentration 100.0 nM
[4] = biological target: Cyclin-dependent kinase 16 (Homo sapiens) (UniProt Q00536); conditions: Compound concentration 100.0 nM
[5] = biological target: Serine/threonine-protein kinase 4 (Homo sapiens) (UniProt Q13043); conditions: Compound concentration 100.0 nM
[6] = biological target: Homeodomain-interacting protein kinase 3 (Homo sapiens) (UniProt Q9H422); conditions: Compound concentration 100.0 nM
[7] = biological target: Mast/stem cell growth factor receptor Kit (Homo sapiens) (UniProt P10721); conditions: Compound concentration 100.0 nM
[8] = biological target: Tyrosine-protein kinase Srms (Homo sapiens) (UniProt Q9H3Y6); conditions: Compound concentration 100.0 nM
[9] = biological target: Mitogen-activated protein kinase kinase kinase 1 (Homo sapiens) (UniProt Q13233); conditions: Compound concentration 100.0 nM
[10] = biological target: Serine/threonine-protein kinase BRSK2 (Homo sapiens) (UniProt Q8IWQ3); conditions: Compound concentration 100.0 nM
[11] = biological target: T1, Dual specificity mitogen-activated protein kinase kinase 6 (Homo sapiens) (UniProt P52564); conditions: Compound concentration 100.0 nM
T1 sequence (whole entry): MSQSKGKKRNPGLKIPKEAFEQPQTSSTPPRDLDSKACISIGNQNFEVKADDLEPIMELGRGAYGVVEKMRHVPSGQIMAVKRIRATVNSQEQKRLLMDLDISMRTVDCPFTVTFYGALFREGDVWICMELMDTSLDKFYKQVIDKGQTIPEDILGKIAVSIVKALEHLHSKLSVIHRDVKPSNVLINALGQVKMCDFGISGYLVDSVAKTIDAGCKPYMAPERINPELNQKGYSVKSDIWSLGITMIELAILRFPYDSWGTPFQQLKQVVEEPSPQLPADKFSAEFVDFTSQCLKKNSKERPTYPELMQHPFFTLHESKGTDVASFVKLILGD

[12] = biological target: Tyrosine-protein kinase ABL2 (Homo sapiens) (UniProt P42684); conditions: Compound concentration 100.0 nM
[13] = biological target: Fibroblast growth factor receptor 1 (Homo sapiens) (UniProt P11362); conditions: Compound concentration 100.0 nM
[14] = biological target: Protein-tyrosine kinase 6 (Homo sapiens) (UniProt Q13882); conditions: Compound concentration 100.0 nM
[15] = biological target: Citron Rho-interacting kinase (Homo sapiens) (UniProt O14578); conditions: Compound concentration 100.0 nM
[16] = biological target: Alpha-1A adrenergic receptor (Homo sapiens) (UniProt P35348); conditions: Compound concentration 10.0 uM
[17] = biological target: STE20-like serine/threonine-protein kinase (Homo sapiens) (UniProt Q9H2G2); conditions: Compound concentration 100.0 nM
[18] = tested on: Tyrosine-protein kinase ABL1 (Homo sapiens), P00519 [F317I]; conditions: Compound concentration 100.0 nM
[19] = biological target: MAP kinase-interacting serine/threonine-protein kinase 1 (Homo sapiens) (UniProt Q9BUB5); conditions: Compound concentration 100.0 nM
[20] = biological target: GABA-A receptor; anion channel (Rattus norvegicus) (UniProt O09028+P15431+P18506+P18508+P19969+P20236+P23574+P23576+P28471+P28473+P30191+P62813+P63079+P63138+Q91ZM7+Q9ES14); conditions: Compound concentration 10.0 uM
[21] = tested on: ALK tyrosine kinase receptor (Homo sapiens), Q9UM73 [C1156Y]; conditions: Compound concentration 100.0 nM
[22] = biological target: TGF-beta receptor type-2 (Homo sapiens) (UniProt P37173); conditions: Compound concentration 100.0 nM
[23] = biological target: Non-receptor tyrosine-protein kinase TYK2 (Homo sapiens) (UniProt P29597); conditions: Compound concentration 100.0 nM
[24] = biological target: Mitogen-activated protein kinase kinase kinase 11 (Homo sapiens) (UniProt Q16584); conditions: Compound concentration 100.0 nM
[25] = biological target: RAC-gamma serine/threonine-protein kinase (Homo sapiens) (UniProt Q9Y243); conditions: Compound concentration 100.0 nM
[26] = biological target: Serine/threonine-protein kinase Nek3 (Homo sapiens) (UniProt P51956); conditions: Compound concentration 100.0 nM
[27] = biological target: Casein kinase I isoform gamma-3 (Homo sapiens) (UniProt Q9Y6M4); conditions: Compound concentration 100.0 nM
[28] = biological target: Serine/threonine-protein kinase NLK (Homo sapiens) (UniProt Q9UBE8); conditions: Compound concentration 100.0 nM
[29] = biological target: 5-hydroxytryptamine receptor 7 (Homo sapiens) (UniProt P34969); conditions: Compound concentration 10.0 uM
[30] = biological target: Ribosomal protein S6 kinase alpha-3 (Homo sapiens) (UniProt P51812); conditions: Compound concentration 100.0 nM
[31] = biological target: Cyclin-dependent kinase 13 (Homo sapiens) (UniProt Q14004); conditions: Compound concentration 100.0 nM
[32] = biological target: Interleukin-1 receptor-associated kinase 1 (Homo sapiens) (UniProt P51617); conditions: Compound concentration 100.0 nM
[33] = tested on: Tyrosine-protein kinase ABL1 (Homo sapiens), P00519 [F317L]; conditions: Compound concentration 100.0 nM
[34] = biological target: 5-hydroxytryptamine receptor 1D (Homo sapiens) (UniProt P28221); conditions: Compound concentration 10.0 uM
[35] = biological target: Calcium/calmodulin-dependent protein kinase type II subunit gamma (Homo sapiens) (UniProt Q13555); conditions: Compound concentration 100.0 nM
[36] = biological target: Serine/threonine-protein kinase BRSK1 (Homo sapiens) (UniProt Q8TDC3); conditions: Compound concentration 100.0 nM
[37] = biological target: Cyclin-dependent kinase 11A (Homo sapiens) (UniProt Q9UQ88); conditions: Compound concentration 100.0 nM
[38] = biological target: Dual specificity tyrosine-phosphorylation-regulated kinase 2 (Homo sapiens) (UniProt Q92630); conditions: Compound concentration 100.0 nM
[39] = biological target: Dual specificity protein kinase TTK (Homo sapiens) (UniProt P33981); conditions: Compound concentration 100.0 nM

Sequence of Cyclin-dependent kinase 13 (Homo sapiens) (Q14004 whole entry, looked up): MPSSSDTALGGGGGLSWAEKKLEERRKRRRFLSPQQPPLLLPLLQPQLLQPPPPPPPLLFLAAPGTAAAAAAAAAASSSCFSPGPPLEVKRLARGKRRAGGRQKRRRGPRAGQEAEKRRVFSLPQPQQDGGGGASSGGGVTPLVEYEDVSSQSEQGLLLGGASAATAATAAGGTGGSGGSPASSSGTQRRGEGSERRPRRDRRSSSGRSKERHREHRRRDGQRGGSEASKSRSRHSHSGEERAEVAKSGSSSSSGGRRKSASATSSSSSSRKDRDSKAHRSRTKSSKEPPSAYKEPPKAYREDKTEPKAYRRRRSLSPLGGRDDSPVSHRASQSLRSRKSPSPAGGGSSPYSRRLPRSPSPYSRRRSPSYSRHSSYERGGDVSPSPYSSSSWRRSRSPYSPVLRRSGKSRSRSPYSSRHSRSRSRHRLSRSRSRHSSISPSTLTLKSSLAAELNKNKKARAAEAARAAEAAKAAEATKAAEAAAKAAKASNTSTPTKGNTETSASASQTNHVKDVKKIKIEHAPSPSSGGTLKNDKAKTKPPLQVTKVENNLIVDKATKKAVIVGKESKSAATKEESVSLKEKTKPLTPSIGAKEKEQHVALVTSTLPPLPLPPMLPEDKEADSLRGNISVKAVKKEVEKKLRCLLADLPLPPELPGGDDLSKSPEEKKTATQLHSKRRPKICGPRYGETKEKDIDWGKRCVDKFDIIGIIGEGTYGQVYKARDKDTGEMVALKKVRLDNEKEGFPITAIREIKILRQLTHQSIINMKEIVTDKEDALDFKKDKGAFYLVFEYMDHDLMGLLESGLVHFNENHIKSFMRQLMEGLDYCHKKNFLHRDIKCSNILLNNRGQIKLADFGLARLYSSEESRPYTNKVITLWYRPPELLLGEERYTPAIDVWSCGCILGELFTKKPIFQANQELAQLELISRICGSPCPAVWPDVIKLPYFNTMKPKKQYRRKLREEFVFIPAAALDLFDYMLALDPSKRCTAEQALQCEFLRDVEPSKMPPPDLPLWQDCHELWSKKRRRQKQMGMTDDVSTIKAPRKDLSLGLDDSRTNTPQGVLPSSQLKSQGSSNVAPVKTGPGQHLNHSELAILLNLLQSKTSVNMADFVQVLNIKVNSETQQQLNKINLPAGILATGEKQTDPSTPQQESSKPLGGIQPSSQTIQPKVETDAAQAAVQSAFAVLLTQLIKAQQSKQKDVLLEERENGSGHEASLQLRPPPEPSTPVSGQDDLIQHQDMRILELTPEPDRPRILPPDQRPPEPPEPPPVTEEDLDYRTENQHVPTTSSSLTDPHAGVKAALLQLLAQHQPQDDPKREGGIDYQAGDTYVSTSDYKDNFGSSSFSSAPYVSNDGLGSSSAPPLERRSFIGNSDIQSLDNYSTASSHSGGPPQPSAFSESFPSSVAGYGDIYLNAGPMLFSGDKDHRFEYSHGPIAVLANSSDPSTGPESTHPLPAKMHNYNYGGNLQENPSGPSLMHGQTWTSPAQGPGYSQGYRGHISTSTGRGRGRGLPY
Sequence of Tyrosine-protein kinase ABL1 (Homo sapiens), P00519 [F317L] (P00519 whole entry F317L): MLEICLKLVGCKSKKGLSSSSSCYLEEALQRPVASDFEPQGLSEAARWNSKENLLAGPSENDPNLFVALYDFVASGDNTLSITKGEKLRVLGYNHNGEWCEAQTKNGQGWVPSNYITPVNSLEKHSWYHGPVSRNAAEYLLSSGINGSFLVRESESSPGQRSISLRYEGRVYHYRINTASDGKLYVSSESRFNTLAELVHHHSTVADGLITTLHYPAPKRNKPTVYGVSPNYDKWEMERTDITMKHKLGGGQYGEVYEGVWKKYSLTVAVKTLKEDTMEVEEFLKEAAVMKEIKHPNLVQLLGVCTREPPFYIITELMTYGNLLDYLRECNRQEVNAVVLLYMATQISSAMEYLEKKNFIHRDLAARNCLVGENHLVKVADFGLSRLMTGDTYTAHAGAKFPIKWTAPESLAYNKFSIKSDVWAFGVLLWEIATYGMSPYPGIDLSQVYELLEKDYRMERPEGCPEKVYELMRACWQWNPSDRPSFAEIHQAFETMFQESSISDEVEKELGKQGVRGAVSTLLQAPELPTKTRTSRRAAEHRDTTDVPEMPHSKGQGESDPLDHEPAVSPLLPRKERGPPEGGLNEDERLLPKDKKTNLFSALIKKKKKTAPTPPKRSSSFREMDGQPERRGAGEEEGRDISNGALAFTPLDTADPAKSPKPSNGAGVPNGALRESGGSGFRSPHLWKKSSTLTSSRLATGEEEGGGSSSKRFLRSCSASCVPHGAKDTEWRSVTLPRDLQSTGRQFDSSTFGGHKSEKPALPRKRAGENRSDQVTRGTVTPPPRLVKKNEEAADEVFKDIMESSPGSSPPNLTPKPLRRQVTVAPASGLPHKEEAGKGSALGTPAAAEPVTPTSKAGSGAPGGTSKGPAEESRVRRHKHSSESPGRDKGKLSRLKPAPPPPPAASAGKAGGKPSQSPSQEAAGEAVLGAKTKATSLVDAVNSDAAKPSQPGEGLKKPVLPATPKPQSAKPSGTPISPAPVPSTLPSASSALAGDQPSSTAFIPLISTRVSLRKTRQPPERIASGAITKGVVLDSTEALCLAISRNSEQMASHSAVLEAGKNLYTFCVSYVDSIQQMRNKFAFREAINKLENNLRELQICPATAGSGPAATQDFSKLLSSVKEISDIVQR
Sequence of STE20-like serine/threonine-protein kinase (Homo sapiens) (Q9H2G2 whole entry, looked up): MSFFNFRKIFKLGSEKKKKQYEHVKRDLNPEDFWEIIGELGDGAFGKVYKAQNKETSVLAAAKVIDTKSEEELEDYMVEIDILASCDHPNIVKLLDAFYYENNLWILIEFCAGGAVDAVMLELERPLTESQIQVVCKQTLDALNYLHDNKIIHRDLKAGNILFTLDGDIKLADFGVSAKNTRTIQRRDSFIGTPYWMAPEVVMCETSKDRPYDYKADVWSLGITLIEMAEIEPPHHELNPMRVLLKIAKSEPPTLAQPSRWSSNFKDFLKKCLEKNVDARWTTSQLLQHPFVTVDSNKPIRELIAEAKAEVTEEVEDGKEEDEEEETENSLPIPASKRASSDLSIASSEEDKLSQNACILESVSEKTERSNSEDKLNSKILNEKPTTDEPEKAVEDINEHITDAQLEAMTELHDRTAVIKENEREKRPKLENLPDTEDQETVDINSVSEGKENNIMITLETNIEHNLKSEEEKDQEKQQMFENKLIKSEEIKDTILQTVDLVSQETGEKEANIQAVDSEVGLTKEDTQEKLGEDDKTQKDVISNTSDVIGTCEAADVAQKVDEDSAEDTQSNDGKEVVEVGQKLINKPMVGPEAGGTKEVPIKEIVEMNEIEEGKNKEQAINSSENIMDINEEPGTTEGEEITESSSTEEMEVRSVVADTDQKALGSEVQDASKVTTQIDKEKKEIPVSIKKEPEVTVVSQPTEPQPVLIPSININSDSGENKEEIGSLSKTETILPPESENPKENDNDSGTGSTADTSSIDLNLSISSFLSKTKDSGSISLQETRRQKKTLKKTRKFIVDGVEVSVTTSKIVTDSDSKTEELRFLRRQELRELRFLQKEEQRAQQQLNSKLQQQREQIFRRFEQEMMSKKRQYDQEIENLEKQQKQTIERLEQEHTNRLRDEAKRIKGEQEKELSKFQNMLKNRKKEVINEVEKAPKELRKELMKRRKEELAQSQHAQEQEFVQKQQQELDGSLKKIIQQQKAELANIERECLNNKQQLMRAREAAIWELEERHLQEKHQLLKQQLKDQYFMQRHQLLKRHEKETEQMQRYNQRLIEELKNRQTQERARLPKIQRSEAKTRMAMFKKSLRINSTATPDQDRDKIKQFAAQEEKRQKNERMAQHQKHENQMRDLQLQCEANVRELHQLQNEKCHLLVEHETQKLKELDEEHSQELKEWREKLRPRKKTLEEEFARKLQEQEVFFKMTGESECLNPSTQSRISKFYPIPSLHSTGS
Sequence of Protein-tyrosine kinase 6 (Homo sapiens) (Q13882 whole entry, looked up): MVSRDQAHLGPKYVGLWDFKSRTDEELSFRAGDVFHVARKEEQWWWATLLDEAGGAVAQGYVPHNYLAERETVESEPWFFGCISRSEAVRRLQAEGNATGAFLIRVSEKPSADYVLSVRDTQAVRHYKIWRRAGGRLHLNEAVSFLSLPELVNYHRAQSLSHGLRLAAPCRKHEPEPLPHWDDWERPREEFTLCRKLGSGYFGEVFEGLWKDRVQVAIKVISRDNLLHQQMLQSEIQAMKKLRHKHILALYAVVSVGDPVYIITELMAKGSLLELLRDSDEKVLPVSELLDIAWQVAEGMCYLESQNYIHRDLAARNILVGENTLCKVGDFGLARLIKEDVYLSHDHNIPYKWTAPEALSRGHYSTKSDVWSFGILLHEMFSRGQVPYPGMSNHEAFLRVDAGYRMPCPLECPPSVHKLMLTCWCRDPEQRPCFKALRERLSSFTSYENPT
Sequence of Serine/threonine-protein kinase Nek3 (Homo sapiens) (P51956 whole entry, canonical isoform): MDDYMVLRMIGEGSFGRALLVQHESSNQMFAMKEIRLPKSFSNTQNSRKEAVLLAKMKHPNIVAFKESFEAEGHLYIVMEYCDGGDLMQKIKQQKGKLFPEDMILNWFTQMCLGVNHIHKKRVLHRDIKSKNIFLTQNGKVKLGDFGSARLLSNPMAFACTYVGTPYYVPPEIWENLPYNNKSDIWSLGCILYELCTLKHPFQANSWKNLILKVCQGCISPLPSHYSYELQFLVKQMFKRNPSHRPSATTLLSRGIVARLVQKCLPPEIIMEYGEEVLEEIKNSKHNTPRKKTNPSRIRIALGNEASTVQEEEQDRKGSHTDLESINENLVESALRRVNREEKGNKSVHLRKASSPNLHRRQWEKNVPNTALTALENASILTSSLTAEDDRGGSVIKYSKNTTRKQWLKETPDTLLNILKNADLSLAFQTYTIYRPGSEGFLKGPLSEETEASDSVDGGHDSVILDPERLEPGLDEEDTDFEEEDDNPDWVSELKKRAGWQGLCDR
Sequence of Tyrosine-protein kinase ABL1 (Homo sapiens), P00519 [F317I] (P00519 whole entry F317I): as the sequence (P00519 whole entry F317L) above, with L317I counted along it
Sequence of Tyrosine-protein kinase ABL1 (Homo sapiens), P00519 [E255K] (P00519 whole entry E255K): as the sequence (P00519 whole entry F317L) above, with E255K, L317F counted along it

Cc1c[nH]c2nccc(Oc3c(F)cc(Nc4cc(Cl)nc(N)n4)cc3F)c12 [BAY-549]
inactive: residual activity [1] 100% | residual activity [2] 100% | residual activity [3] 66% | residual activity [4] 99% | residual activity [5] 100% | residual activity [6] 92% | residual activity [7] 77% | residual activity [8] 100% | residual activity [9] 82% | residual activity [10] 92% | residual activity [11] 99% | residual activity [12] 86% | residual activity [13] 100% | residual activity [14] 100% | residual activity [15] 100% | inhibition [16] -7.18% | residual activity [17] 97% | residual activity [18] 100% | residual activity [19] 100% | inhibition [20] 4.87% | residual activity [21] 100% | residual activity [22] 100% | residual activity [23] 89% | residual activity [24] 100% | residual activity [25] 78% | residual activity [26] 75% | residual activity [27] 100% | residual activity [28] 100% | inhibition [29] 9.29% | residual activity [30] 73% | residual activity [31] 73% | residual activity [32] 90% | residual activity [33] 74% | inhibition [34] 45% | residual activity [35] 96% | residual activity [36] 96% | residual activity [37] 100% | residual activity [38] 100% | residual activity [39] 96%

Cn1cc(Cl)c2c(Oc3c(F)cc(Nc4cc(Cl)nc(N)n4)cc3F)ccnc21 [BAY-4900]
inactive: residual activity [1] 100% | residual activity [2] 100% | residual activity [3] 99% | residual activity [4] 100% | residual activity [5] 94% | residual activity [6] 80% | residual activity [7] 78% | residual activity [8] 100% | residual activity [9] 76% | residual activity [10] 100% | residual activity [11] 100% | residual activity [12] 99% | residual activity [13] 100% | residual activity [14] 86% | residual activity [15] 100% | inhibition [16] -5.31% | residual activity [17] 98% | residual activity [18] 93% | residual activity [19] 100% | inhibition [20] 1.6% | residual activity [21] 100% | residual activity [22] 90% | residual activity [23] 85% | residual activity [24] 100% | residual activity [25] 98% | residual activity [26] 91% | residual activity [27] 100% | residual activity [28] 100% | inhibition [29] -1.63% | residual activity [30] 79% | residual activity [31] 77% | residual activity [32] 95% | residual activity [33] 74% | inhibition [34] -5.84% | residual activity [35] 100% | residual activity [36] 100% | residual activity [37] 100% | residual activity [38] 100% | residual activity [39] 100%
